In patent US8796268B2, “Heteroaryls and uses thereof” (Millennium Pharmaceuticals, Inc., priority 2010, dated 2014):

Legend:
Format in all cases: biochemical
Human PI3K delta = target: T1, Human PI3K delta (Homo sapiens, UniProt O00329); assay: Human PI3K delta enzyme assay (HTRF); conditions: at a 1.0 μM concentration; read-out: PI3Kδ Percent Inhibition
T1 construct: His (N); host or cells: SF9 insect cells (baculovirus)
How it was run: (§1)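 Compounds were mixed with 25 uM ATP, then with 3.5 uM di-C8 PI(4,5)P2 and His-tagged PI3K isoform (β 5.25 nM, δ 0.75 nM, γ 5 nM) at pH 7.00. After 30 min at room temperature, EDTA stopped the reaction and PIP3 was measured by HTRF over 1 h.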

Human PI3K alpha = target: T2, Human PI3K alpha (Homo sapiens, UniProt P42336); assay: Human PI3K alpha enzyme assay (HTRF); conditions: at a 1.1 μM concentration; read-out: PI3Kα Percent Inhibition
T2 construct: His (N); host or cells: SF9 insect cells (baculovirus)

Human PI3K beta = target: T3, Human PI3K beta (Homo sapiens, UniProt P42338); assay: Human PI3K beta enzyme assay (HTRF); conditions: at a 1.1 μM concentration; read-out: PI3β Percent Inhibition
T3 construct: His (N); host or cells: SF9 insect cells (baculovirus)
How it was run: as §1

Human PI3K gamma = target: T4, Human PI3K gamma (Homo sapiens, UniProt P48736); assay: Human PI3K gamma enzyme assay (HTRF); conditions: at a 1.0 μM concentration; read-out: PI3Kγ Percent Inhibition
T4 construct: His (N); host or cells: SF9 insect cells (baculovirus)
How it was run: as §1

Human VPS34 = target: T5, Human VPS34 (Homo sapiens, UniProt Q8NEB9); assay: Human VPS34 enzyme assay (Adapta Universal Kinase Assay); conditions: at a 1.0 μM concentration; read-out: VPS34 Percent Inhibition
T5 construct: GST (with thrombin site, pDEST20-Thrombin) (N); host or cells: SF9 insect cells (baculovirus)
Source text: The catalytic subunits of PI3Ks are cloned into either pDEST8(p110 alpha) or pDEST10(p110beta, p110delta, and p110gamma) as N-terminal His tagged fusion proteins using the Gateway system (Invitrogen, catalog#11804-010 for pDEST8 and 11806-015 for pDEST10). The sequences are verified before recombinant protein expression using the Baculovirus Expression System with Gateway® Technology. The accession numbers for the subunits are as follows: • p110 alpha (GB:U79143) • p110beta (GB: S67334) • p110delta (GB: U86453) • p110gamma (GB: X83368) • The regulatory subunits of PI3Ks are cloned into pDEST8 as un-tagged protein using the Gateway system (Catalog#11804-010). The sequences are verified before recombinant protein expression using the Baculovirus Expression System with Gateway® Technology. The accession numbers for the subunits are as following: • p85 alpha (GB: BC030815) • p101(GB: AB028925) • VPS34 (accession number GB:BC033004) is cloned into pDEST20—Thombin as N-terminal GST tagged fusion proteins using the Gateway system (Invitrogen, catalog#11804-013). The sequences are verified before recombinant protein expression using the Baculovirus Expression System with Gateway® Technology.
For expression VPS34 was infected at 1MOI in SF9 cells and harvested 72 hours post infection.
For purification, VPS34 is purified by Glutathione Sepharose 4 Fast Flow (GE Healthcare #17-5132-03) followed by HiTrap Q (GE Healthcare #17-1153-01).
3) VPS34 is assayed using Adapta™ Universal Kinase Assay Kit (Invitrogen).
4) Human VPS34 enzyme assay method
100 nL compounds in DMSO are added to wells of a 384 well microtitre plate (Greiner 780076). At room temperature: 5 ul VPS34 reaction buffer (Invitrogen Assay Buffer Q (diluted 1 in 5 with nanopure water) plus 2 mM DTT and 2 mM MnCl2) containing ATP (20 uM, Promega) and 200 uM PI—PS substrate (Invitrogen PV5122) is added followed immediately by 5 ul VPS34 reaction buffer (as above) containing VPS34 (5 nM, Millennium Protein Sciences Group) and the mixture is incubated with shaking at room temperature for 1 hour. Then 5 ul VPS34 stop-detect mix (as per Invitrogen Adapta Assay kit (PV5009) instructions (contains kinase quench buffer, TR-FRET buffer, Adapta Eu anti-ADP antibody and Alexa Fluor 647 ADP tracer)) is added to quench the reaction. The plates are then incubated for 30 minutes at room temperature with shaking and then read on a BMG PheraStar Plus reader.
For the assay methods described above, test compound percent inhibition, at various concentrations, is calculated relative to control (DMSO and EDTA) treated samples. Compound concentration versus percent inhibition curves are fitted to generate IC50 values. One skilled in the art will appreciate that the values generated either as percentage inhibition at a single concentration or IC50 values are subject to experimental variation.

T1 sequence (O00329 whole entry): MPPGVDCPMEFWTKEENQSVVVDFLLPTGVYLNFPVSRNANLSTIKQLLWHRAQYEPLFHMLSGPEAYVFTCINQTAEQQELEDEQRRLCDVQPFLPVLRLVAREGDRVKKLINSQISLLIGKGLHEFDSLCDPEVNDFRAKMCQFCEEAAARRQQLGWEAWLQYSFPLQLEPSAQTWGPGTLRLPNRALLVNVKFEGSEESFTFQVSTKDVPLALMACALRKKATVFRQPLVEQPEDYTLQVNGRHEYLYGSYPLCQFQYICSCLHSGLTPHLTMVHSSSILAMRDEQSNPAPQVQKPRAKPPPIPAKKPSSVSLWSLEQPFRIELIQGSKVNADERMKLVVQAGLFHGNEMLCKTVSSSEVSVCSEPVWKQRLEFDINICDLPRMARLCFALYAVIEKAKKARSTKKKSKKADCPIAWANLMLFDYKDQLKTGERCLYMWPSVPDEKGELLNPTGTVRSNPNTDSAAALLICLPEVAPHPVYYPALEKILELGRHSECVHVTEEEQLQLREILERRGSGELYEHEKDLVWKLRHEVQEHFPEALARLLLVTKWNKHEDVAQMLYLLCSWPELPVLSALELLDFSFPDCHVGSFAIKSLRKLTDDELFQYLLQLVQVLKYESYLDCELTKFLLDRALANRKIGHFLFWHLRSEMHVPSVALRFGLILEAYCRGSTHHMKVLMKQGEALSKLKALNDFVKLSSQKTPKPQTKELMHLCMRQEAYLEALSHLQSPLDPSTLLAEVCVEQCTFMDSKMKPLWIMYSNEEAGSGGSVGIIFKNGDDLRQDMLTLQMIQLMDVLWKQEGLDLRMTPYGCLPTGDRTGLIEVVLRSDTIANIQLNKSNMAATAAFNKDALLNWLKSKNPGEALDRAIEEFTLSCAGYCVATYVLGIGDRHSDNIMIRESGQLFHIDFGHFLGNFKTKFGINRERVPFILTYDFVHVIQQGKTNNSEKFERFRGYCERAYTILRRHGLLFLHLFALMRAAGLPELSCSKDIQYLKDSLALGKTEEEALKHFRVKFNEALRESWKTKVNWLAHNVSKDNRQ
T1 sequence (P27986 whole entry partner): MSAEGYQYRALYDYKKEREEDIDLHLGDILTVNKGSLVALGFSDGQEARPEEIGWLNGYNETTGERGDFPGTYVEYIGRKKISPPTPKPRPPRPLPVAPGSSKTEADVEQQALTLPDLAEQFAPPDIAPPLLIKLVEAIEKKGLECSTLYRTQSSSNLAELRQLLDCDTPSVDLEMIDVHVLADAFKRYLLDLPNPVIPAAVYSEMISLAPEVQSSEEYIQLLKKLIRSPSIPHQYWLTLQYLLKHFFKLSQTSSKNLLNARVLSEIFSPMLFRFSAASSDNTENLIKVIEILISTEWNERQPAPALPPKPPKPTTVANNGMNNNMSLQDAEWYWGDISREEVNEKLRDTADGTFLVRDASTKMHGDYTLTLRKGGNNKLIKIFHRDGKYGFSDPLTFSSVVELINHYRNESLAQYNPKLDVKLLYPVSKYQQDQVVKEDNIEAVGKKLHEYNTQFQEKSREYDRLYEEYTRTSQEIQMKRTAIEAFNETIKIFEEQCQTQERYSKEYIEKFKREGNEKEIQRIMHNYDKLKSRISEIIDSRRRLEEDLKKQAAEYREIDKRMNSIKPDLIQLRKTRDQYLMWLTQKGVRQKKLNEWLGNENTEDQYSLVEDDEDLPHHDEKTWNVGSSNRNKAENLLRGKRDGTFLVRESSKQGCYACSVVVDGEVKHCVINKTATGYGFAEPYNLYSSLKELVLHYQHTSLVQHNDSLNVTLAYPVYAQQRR
T5 sequence (Q8NEB9 whole entry): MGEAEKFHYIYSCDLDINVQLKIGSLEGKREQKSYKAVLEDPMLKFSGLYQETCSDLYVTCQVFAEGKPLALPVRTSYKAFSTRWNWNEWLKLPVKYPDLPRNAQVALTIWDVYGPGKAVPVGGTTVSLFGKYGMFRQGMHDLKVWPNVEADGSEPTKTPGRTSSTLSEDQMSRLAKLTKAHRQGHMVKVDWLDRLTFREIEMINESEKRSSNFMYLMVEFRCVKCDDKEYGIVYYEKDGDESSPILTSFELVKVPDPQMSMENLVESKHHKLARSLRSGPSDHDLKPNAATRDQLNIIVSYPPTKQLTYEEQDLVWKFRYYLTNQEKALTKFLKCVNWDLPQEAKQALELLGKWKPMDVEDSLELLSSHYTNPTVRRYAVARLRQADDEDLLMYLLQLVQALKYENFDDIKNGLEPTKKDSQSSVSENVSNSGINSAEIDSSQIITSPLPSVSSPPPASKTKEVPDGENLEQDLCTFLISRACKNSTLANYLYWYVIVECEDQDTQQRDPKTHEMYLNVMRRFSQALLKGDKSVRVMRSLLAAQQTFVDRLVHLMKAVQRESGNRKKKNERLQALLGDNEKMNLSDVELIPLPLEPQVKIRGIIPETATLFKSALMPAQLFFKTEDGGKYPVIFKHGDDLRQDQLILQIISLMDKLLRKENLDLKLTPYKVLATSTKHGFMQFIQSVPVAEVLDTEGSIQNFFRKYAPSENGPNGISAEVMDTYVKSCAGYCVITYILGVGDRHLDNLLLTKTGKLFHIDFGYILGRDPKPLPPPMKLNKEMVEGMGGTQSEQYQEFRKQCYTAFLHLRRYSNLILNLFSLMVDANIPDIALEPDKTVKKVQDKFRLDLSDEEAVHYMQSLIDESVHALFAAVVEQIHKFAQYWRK
T4 sequence (P48736 whole entry): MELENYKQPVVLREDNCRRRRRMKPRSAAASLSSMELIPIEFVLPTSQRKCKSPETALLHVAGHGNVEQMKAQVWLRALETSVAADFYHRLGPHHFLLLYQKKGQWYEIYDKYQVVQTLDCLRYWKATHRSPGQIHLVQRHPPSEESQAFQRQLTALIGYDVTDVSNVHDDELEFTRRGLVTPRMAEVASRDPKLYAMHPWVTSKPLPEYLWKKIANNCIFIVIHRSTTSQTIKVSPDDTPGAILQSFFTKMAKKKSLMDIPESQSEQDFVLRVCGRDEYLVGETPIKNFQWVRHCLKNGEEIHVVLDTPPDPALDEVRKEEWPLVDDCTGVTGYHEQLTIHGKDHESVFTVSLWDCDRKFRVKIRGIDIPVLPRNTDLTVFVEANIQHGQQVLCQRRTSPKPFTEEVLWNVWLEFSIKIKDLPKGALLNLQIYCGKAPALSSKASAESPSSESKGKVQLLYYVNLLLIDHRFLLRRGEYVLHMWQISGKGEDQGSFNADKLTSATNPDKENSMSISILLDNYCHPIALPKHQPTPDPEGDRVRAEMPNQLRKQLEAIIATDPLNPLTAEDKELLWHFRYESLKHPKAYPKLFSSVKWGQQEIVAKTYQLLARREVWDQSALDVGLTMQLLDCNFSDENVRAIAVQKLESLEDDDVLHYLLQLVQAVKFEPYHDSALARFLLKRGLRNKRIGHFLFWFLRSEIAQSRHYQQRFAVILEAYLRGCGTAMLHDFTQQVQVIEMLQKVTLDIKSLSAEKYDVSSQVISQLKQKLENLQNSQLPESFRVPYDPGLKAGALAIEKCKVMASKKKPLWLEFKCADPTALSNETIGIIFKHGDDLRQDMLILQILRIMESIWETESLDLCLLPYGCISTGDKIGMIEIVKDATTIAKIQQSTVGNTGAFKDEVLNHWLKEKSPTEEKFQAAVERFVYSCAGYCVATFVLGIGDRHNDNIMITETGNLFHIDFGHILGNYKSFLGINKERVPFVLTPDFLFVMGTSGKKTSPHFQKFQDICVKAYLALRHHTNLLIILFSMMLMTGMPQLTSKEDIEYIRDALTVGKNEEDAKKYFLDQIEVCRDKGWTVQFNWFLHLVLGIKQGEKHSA
T2 sequence (P42336 whole entry): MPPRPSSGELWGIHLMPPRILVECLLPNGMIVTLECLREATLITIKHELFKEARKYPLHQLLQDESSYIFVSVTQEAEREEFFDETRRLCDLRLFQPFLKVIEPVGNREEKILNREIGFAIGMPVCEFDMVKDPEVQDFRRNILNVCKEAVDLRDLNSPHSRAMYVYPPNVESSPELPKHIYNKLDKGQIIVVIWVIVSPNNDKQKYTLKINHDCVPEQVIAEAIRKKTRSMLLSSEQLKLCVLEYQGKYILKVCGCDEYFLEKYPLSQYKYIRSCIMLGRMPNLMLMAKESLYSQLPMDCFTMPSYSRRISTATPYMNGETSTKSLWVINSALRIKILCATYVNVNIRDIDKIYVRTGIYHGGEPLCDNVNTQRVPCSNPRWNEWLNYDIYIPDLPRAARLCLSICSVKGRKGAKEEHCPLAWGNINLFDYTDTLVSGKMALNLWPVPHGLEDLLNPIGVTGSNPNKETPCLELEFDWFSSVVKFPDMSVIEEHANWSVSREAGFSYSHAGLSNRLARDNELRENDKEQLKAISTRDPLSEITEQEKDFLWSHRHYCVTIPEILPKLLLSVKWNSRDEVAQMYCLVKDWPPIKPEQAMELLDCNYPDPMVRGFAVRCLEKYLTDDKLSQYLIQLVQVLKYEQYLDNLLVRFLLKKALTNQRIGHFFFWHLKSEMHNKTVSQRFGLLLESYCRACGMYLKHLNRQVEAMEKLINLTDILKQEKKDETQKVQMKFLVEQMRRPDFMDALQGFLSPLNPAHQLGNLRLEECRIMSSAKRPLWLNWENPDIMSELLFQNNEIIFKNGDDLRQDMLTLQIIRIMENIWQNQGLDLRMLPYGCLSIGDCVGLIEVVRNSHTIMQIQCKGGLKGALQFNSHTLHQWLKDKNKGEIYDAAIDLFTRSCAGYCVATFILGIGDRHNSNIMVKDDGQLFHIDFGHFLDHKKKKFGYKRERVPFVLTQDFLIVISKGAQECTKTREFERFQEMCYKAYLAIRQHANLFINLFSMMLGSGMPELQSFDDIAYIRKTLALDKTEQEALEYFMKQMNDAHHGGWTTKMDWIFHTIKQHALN
T2 sequence (P27986 whole entry partner): as the sequence (P27986 whole entry partner) above

Compound	inhibition at 1 µM (Human PI3K delta)	inhibition at 1.1 µM (Human PI3K alpha)	inhibition at 1.1 µM (Human PI3K beta)	inhibition at 1 µM (Human PI3K gamma)	inhibition at 1 µM (Human VPS34)
N#Cc1c(N2CCOCC2)sc(C(=O)O)c1Cc1ccc(Cl)c(Cl)c1 [Compound 124]	112%	79%	109%	74.2%	78.8%
COc1cc(Cl)ccc1Cc1c(C(=O)O)sc(N2CCOCC2)c1C#N [Compound 125]	85.1%	46%	99%	25.9%	37.1%

Second part, the compound after the results:

inhibition at 1 µM (Human PI3K delta)	inhibition at 1.1 µM (Human PI3K alpha)	inhibition at 1.1 µM (Human PI3K beta)	inhibition at 1 µM (Human PI3K gamma)	inhibition at 1 µM (Human VPS34)	Compound
100%	42%	103%	37.6%	44%	N#Cc1c(N2CCOCC2)sc(C(=O)O)c1Cc1c(F)cc(Cl)cc1F [Compound 126]
100%	40%	110%	55%	33.7%	COc1cc(Cc2c(C(=O)O)sc(N3CCOCC3)c2C#N)c(F)cc1Cl [Compound 127]
114%	46%	106%	63.4%	88.1%	O=C(O)c1sc(N2CCOCC2)nc1Cc1ccc2cc(F)ccc2c1 [Compound 128]
